Measurements from US9314510B2, “Human laminin α2 chain LG3 domain and active peptides promoting cell adhesion, spreading, migration, and neurite outgrowth” (SNU R&DB Foundation, priority 2011, dated 2016).

Tests used:
PC12 cells [1] = assay: Effect of Rho-kinase inhibitor on stress fibers; type: cell-based, rat; conditions: cells seeded 1 h, then 10 μM for 2 h
Method: PC12 cells were seeded on glass slide chambers coated with laminin, rLG3, or Ln2-LG3-P2 for 1 h. The cells were treated with […] Y27632, a selective inhibitor of Rho-associated protein kinase, for 2 h in serum-free medium and immunostained with rhodamine-phalloidin.

PC12 cells [2] = assay: Effect of PKC inhibitor pretreatment on cell adhesion, spreading, migration and stress fiber formation; type: cell-based, rat; conditions: Gö6976 2.5 or 5.0 nM, rottlerin 1 or 5 μM, 15 min
Method: PC12 cells were pretreated with Gö6976 or rottlerin for 15 min at 37° C. and seeded on laminin-, rLG3-, or Ln2-LG3-P2-coated plates and then, cell adhesion, spreading, migration, and stress fiber formation were observed. To observe cell adhesion, the pretreated PC12 cells were incubated for 1 h and to observe cell spreading and stress fiber formation, the pretreated PC12 cells were incubated on the coated plates for 3 h. In addition, to observe cell migration, the pretreated PC12 cells were incubated on the coated plates for 24 h.

PKCα/β = PKCα/β inhibitor; cited from earlier work
FAK Tyr-397 = assay: Effect of PKC inhibitors on FAK phosphorylation at Tyr-397; type: cell-based, rat; conditions: PC12 cells pretreated with 5 nM Gö6976 or 5 μM rottlerin 15 min, laminin, rLG3, Ln2-LG3-P2 plates
Method: PC12 cells were pretreated with 5 nM Gö6976 or 5 μM rottlerin for 15 min at 37° C. and seeded on laminin-, rLG3-, or Ln2-LG3-P2-coated plates for 15 min in serum-free medium.

PC12 cells [3] = assay: Cell viability with PKC inhibitors; conditions: at the concentrations used and duration of treatment
PC12 cells [4] = assay: Effect of rottlerin on stress fibers of already spread cells; type: cell-based, rat; conditions: 2.5 h incubation, then 5 μM for 30 min
Method: PC12 cells were seeded on glass slide chambers coated with laminin, rLG3, or Ln2-LG3-P2. After 2.5 h incubation, the cells were treated with 5 μM rottlerin for 30 min and immunostained with rhodamine-phalloidin.

fibroblasts = conditions: 1-3 μM; cited from earlier work
PKCδ = PKCδ (Homo sapiens, UniProt Q05655); conditions: PKCδ inhibitor; cited from earlier work
Chain of PKCδ (Q05655 whole entry): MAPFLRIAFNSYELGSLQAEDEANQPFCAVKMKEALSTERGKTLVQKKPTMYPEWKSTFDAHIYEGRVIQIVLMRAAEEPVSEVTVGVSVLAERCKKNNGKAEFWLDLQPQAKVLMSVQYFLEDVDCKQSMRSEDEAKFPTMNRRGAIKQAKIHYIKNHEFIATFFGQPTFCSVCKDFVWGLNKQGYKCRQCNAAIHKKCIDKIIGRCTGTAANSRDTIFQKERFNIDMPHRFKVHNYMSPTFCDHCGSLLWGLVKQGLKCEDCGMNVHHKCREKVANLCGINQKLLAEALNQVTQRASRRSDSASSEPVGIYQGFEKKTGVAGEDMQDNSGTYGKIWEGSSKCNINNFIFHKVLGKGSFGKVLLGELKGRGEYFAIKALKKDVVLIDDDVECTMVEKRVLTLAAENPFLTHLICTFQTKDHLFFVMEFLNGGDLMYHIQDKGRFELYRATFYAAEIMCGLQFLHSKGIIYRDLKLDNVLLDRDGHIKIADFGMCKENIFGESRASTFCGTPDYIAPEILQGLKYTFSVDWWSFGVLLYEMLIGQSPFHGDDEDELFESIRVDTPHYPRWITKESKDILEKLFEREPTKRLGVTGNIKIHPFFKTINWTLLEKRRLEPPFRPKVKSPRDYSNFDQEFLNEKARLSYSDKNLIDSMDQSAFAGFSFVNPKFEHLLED

PC12 cells [5] = conditions: cited from earlier work
PC12 cells [6] = assay: Effect of PLC inhibitor on cell adhesion and spreading; type: cell-based, rat; conditions: 0.5 or 1.0 μM

SMILES: C[C@@H](N)[C@H]1CC[C@H](C(=O)Nc2ccncc2)CC1 [Y27632]
- stress fibers of PC12 cells to laminin, rLG3, and Ln2-LG3-P2 (PC12 cells [1]): completely disassembled stress fibers

SMILES: Cn1c2ccccc2c2c3c(c4c5ccccc5n(CCC#N)c4c21)CNC3=O [Gö6976]
- spreading of PC12 cells to laminin, rLG3, and Ln2-LG3-P2 after inhibitor pretreatment (PC12 cells [2]; 3 h): not with Gö6976 significantly impaired
- IC50 (PKCα/β): 2.3 nM
- level of FAK phosphorylation at Tyr-397 (FAK Tyr-397): did not affect
- cell viability (PC12 cells [3]): did not affect cell viability

SMILES: CC(=O)c1c(O)c(C)c(O)c(Cc2c(O)c3c(c(C(=O)/C=C/c4ccccc4)c2O)OC(C)(C)C=C3)c1O [rottlerin]
- stress fiber formation of PC12 cells already spread on laminin, rLG3, and Ln2-LG3-P2 (PC12 cells [4]): did not interfere with stress fiber formation
- stress fiber formation of fibroblasts pre-spread on fibronectin (fibroblasts): does not impair stress fiber formation
- adhesion of PC12 cells to laminin, rLG3, and Ln2-LG3-P2 after inhibitor pretreatment (PC12 cells [2]; 1 h): significantly impaired
- spreading of PC12 cells to laminin, rLG3, and Ln2-LG3-P2 after inhibitor pretreatment (PC12 cells [2]; 3 h): significantly impaired
- stress fiber formation of PC12 cells to laminin, rLG3, and Ln2-LG3-P2 after inhibitor pretreatment (PC12 cells [2]; 3 h): significantly impaired
- migration of PC12 cells to laminin, rLG3, and Ln2-LG3-P2 after inhibitor pretreatment (PC12 cells [2]; 24 h): significantly impaired
- level of FAK phosphorylation at Tyr-397 (FAK Tyr-397): reduced
- cell viability (PC12 cells [3]): did not affect cell viability
- IC50 (PKCδ): 3000 to 6000 nM

SMILES: COc1ccc2c(c1)CC[C@@H]1[C@@H]2CC[C@]2(C)[C@@H](NCCCCCCN3C(=O)C=CC3=O)CC[C@@H]12 [U73122]
- α1β1 integrin-mediated PC12 cell adhesion (PC12 cells [5]): reduced
- cell adhesion to rLG3 and Ln2-LG3-P2 after inhibitor pretreatment (PC12 cells [6]; 15 min, 1 h): reduced by U73122 in a dose-dependent manner
- cell spreading to rLG3 and Ln2-LG3-P2 after inhibitor pretreatment (PC12 cells [6]; 15 min, 3 h): reduced
- cell adhesion (as printed in legend of FIG. 15B) (PC12 cells [6]; rLG3 and Ln2-LG3-P2 plates, 3 h): reduced by U73122 in a dose-dependent manner
